Here are results for eight compounds from paper PMC10870298, “Rational Design of Antifungal Peptides Based on the γ-Core Motif of a Neosartorya (Aspergillus) fischeri Antifungal Protein to Improve Structural Integrity, Efficacy, and Spectrum” (ACS Omega, 2024).

Read-outs that look alike come from different tables or passages of the source. Residues, ends and D or L forms follow the SMILES beside them. *: point of attachment. tBu = CC(C)(C)*

Data set [1] deals with C. albicans SC5314. It counts as cell-based, Candida albicans. The conditions noted are these: SC5314, 48 h. As to the method: (§1) The lyophilized and stored peptides were dissolved in sterile ddH2O (5 mg mL^–1). Then, half of the volume of the peptide stock was tested for antifungal activity and stored at −20 °C until RP-HPLC and ECD analyses. This peptide sample is termed the −20 °C sample. The other half volume of the stock was stored at 4 °C for 7 days, tested for antifungal activity, and stored at −20 °C until RP-HPLC and ECD analyses. This peptide sample is referred to as the 4 °C sample.
(§2) MICs of NFAP γ-core peptide derivatives were determined against C. albicans SC5314 and A. fumigatus CBS 101355. These fungi were maintained on yeast peptone dextrose agar (YPD: 10 g L^–1 yeast extract, 20 g L^–1 peptone, 20 g L^–1D-glucose, 15 g L^–1 agar) and malt extract agar (MEA, Sigma-Aldrich) slants at 4 °C, respectively. Susceptibility tests were performed in low cationic medium (LCM: 5 g L^–1D-glucose, 0.25 g L^–1 yeast extract, 0.125 g L^–1 peptone) according to Tóth et al. (2018)[16] and Tóth et al. (2020)[19] for yeasts and molds, respectively, with slight modifications. Briefly, 100 μL NFAP γ-core peptide (0.39–400 μg mL^–1 in two-fold serial dilutions in LCM) was mixed with 100 μL of 2 × 10^5 mL^–1 mid-log phase C. albicans cells or freshly harvested A. fumigatus conidia in LCM in a flat-bottom 96-well microtiter plate (TC Plate 96 Well, Suspension, F; Sarstedt, Nümbrecht, Germany). A mixture of 100 μL of medium (LCM) without NFAP γ-core peptide derivative and 100 μL of cell or conidium suspension served as the untreated growth control, whereas 200 μL of LCM was used for background calibration. The plates were incubated statically for 48 h (C. albicans) or 72 h (A. fumigatus) at 30 °C. The absorbance (OD620) of each well was measured after shaking for 5 s using a microtiter plate reader (SPECTROstar Nano; BMG Labtech, Ortenberg, Germany). The absorbance of the untreated control was taken as 100% growth for the MIC calculation. MIC was defined as the lowest peptide concentration that reduced fungal growth by […] compared with the untreated control. Susceptibility tests were performed in two technical replicates and were repeated at least two times.

For data set [2], the system named is C. albicans SC5314. The data set is described as follows: Cell-killing efficacy: growth kinetics of high-density culture and drop viability on YPD agar. It counts as cell-based, Candida albicans. The conditions noted are these: for growth of high-density C. albicans culture: OD600 = 0.2 mid-log cells, LCM, 30 °C, 24 h; for proportion of cells able to multiply (culture drops on YPD agar after treatment): 24 h treatment at 30 °C, then 5 μL drops on YPD agar 24 h at 30 °C. As to the method:
Compared with MIC determination, monitoring the growth kinetics of high-density cell cultures in the presence of various peptide concentrations allows for detailed insight into the cell-killing efficacy over time and how cysteine modifications influence it. Therefore, the growth of high-density C. albicans cell culture (OD600 = 0.2) was monitored in the presence of 0.5× MIC, 1× MIC, and 2× MIC of the NFAP γ-core peptides.
The experiment was conducted in a flat-bottom 96-well microtiter plate (TC Plate 96 Well, Suspension, F; Sarstedt, Nümbrecht, Germany): 100 μL of OD600 = 0.2 mid-log phase cells prepared in LCM were mixed with 100 μL of 1× MIC, 2× MIC, or 4× MIC of the peptide diluted in LCM. The plates were incubated statically at 30 °C for 24 h. The absorbance (OD600) of each well was then measured after shaking for 5 s every hour using a microtiter plate reader (BioTek Synergy HTX Multi-Mode Microplate Reader; Agilent Technologies, Santa Clara, CA, USA). Untreated cells (100 μL LCM mixed with 100 μL OD600 = 0.2 mid-log phase cells prepared in LCM) served as growth controls. To examine the viability of the treated C. albicans cells, 5–5 μL cultures from each well were dropped onto the YPD agar plate after the last OD600 measurement and allowed to dry before incubation at 30 °C for 24 h. The plates were photographed (Versa Doc Imaging System 4000 MP; Bio-Rad, Hercules, CA, USA). These experiments were repeated two times, involving three technical replicates.

The next data set deals with A. fumigatus CBS 101355. The class given is cell-based, Aspergillus fumigatus. As to the method: as §1, §2
In data set [3] the test system is human cell lines (monocytes, colonic epithelial cells, keratinocytes). The conditions noted are these: cited from earlier work. An excerpt: (§3) The clinical application of antimicrobial peptides is limited by their potential hemolytic activity, toxicity, immunogenicity, and other side effects.[27] […] Herein, we investigated how cysteine–serine substitution(s) and S-tert-butylation of these peptides influence hemolytic activ ...

In another data set the test system is sheep blood. The conditions noted are these: cited from earlier work.
Description: as §3

Data set [4] concerns plant pathogenic filamentous fungi. The conditions noted are these: previous studies; cited from earlier work. An excerpt:
Presumably, these peptides exert an antifungal mechanism through membrane disruption,[17] and the high positive net charge supports this mechanism. Additionally, neither hydrop ...

A short description of data set [5]: Structural integrity (disulfide bridge formation on storage) by RP-HPLC. It counts as physicochemical. As to the method:
The half volume of the dissolved lyophilized peptides was promptly stored at −20 °C for 7 days. The other half volume of these peptides was stored at 4 °C for 7 days (oxidative condition) and then at −20 °C until RP-HPLC and electronic circular dichroism (ECD) analyses were performed. Herein, these peptide samples are referred to as −20 and 4 °C samples, respectively.
as §1
Crude peptides were purified by semipreparative RP-HPLC using a solvent system of (A) 0.1% TFA and (B) 80% acetonitrile, 0.1% TFA, and a linear gradient from 0 to 30% (B) in 60 min. Purification was performed on a Phenomenex Jupiter Proteo 90 Å column (250 × 10 mm) using a Shimadzu HPLC apparatus (Berlin, Germany). Absorbance was detected at 220 nm. Purity was evaluated by analytical RP-HPLC using a Phenomenex Luna 10 μ C18 100 A column and an Agilent 1100 HPLC instrument (Palo Alto, CA, USA).

[6] abbreviates: 4 °C sample: 5 mg mL^–1 in sterile ddH2O stored at 4 °C for 7 days (oxidative condition).
[7] abbreviates: 1 and 2× MIC, OD600 hourly, repeated two times, three technical replicates.

With `CC[C@H](C)[C@H](NC(=O)[C@H](CCCCN)NC(=O)[C@H](CSC(C)(C)C)NC(=O)[C@H](CCCCN)NC(=O)[C@@H](NC(=O)[C@H](CCCCN)NC(=O)[C@@H](NC(=O)[C@H](CCC(=O)O)NC(C)=O)[C@@H](C)CC)[C@@H](C)CC)C(=O)N[C@@H](CCCCN)C(=O)N[C@@H](CCCCN)C(=O)N[C@H](C(=O)N[C@@H](CCCCN)C(=O)N[C@@H](CSC(C)(C)C)C(=O)N[C@@H](CCCCN)C(N)=O)[C@@H](C)CC` [NFAPimpγGZ^S-tBu] (Ac-EIKIKC(tBu)KIKKIKC(tBu)K-NH2), the MIC is given as 25 μg mL^–1 in the data set on C. albicans SC5314 [1] and 25 μg mL^–1 against A. fumigatus CBS 101355 (CBS 101355, 72 h). In the data set with C. albicans SC5314 [2] (1× MIC), the “growth of high-density C. albicans culture” value (“growth” below) is recorded as “inhibited the growth”. The “proportion of cells able to multiply (culture drops on YPD agar after treatment)” value (“proportion of cells able to multiply” below) in the data set with C. albicans SC5314 [2] (2× MIC) is “highly reduce the proportion of cells able to multiply”.
Regarding `CC(=O)N[C@@H](CCC(=O)O)C(=O)N[C@@H](Cc1ccc(O)cc1)C(=O)N[C@@H](CCCCN)C(=O)NCC(=O)N[C@@H](CCCCN)C(=O)N[C@@H](CS)C(=O)N[C@@H](CCCCN)C(=O)N[C@H](C(=O)N[C@@H](CCCCN)C(=O)N[C@@H](CCCCN)C(=O)N[C@@H](CC(N)=O)C(=O)N[C@@H](CCCCN)C(=O)N[C@@H](CS)C(=O)N[C@@H](CCCCN)C(N)=O)[C@@H](C)O` [NFAPimpγ] (Ac-EYKGKCKTKKNKCK-NH2), in data set [3], the “toxicity to various human cell lines” value is recorded as “not toxic”. Further, the hemolysis result with sheep blood was “did not cause hemolysis”. Besides, the “proportion of cells able to multiply” value with C. albicans SC5314 [2] (2× MIC) is “highly reduce the proportion of cells able to multiply”. The antifungal activity entry in data set [4] is “effectively inhibit the growth”. Moreover, the MIC against A. fumigatus CBS 101355 (CBS 101355, 72 h) is on record as over 200 μg mL^–1. In addition, in data set [5] (setting [6]), the “oxidation / disulfide bridge formation (in words)” value was “total amount of the peptide was cyclized”. Further, in data set [5] (–20 °C sample: 5 mg mL^–1 in sterile ddH2O stored at −20 °C for 7 days), the “share of the peptide with intramolecular disulfide bridges (cyclic form)” value is on record as “approximately 60%”.
For the compound `CC(=O)N[C@@H](CCC(=O)O)C(=O)N[C@@H](Cc1ccc(O)cc1)C(=O)N[C@@H](CCCCN)C(=O)NCC(=O)N[C@@H](CCCCN)C(=O)N[C@@H](CSC(C)(C)C)C(=O)N[C@@H](CCCCN)C(=O)N[C@H](C(=O)N[C@@H](CCCCN)C(=O)N[C@@H](CCCCN)C(=O)N[C@@H](CC(N)=O)C(=O)N[C@@H](CCCCN)C(=O)N[C@@H](CSC(C)(C)C)C(=O)N[C@@H](CCCCN)C(N)=O)[C@@H](C)O` [NFAPimpγ^S-tBu] (Ac-EYKGKC(tBu)KTKKNKC(tBu)K-NH2), the MIC was 50 μg mL^–1 against C. albicans SC5314 [1]; 25 μg mL^–1 against A. fumigatus CBS 101355 (CBS 101355, 72 h); 25 μg mL^–1 with A. fumigatus CBS 101355 (storage sample not specified, LCM, 72 h at 30 °C). The “growth” value in the data set on C. albicans SC5314 [2] (0.5× MIC, compared with unmodified NFAPimpγ) is “extended the time when the C. albicans culture started to multiply intensively”. The “proportion of cells able to multiply” value in the data set with C. albicans SC5314 [2] (1–2× MIC) is reported as “highly reduce the proportion of cells able to multiply”.
Turning to `CC(=O)N[C@@H](CCC(=O)O)C(=O)N[C@@H](Cc1ccc(O)cc1)C(=O)N[C@@H](CCCCN)C(=O)NCC(=O)N[C@@H](CCC(=O)O)C(=O)N[C@@H](CS)C(=O)N[C@@H](Cc1ccccc1)C(=O)N[C@H](C(=O)N[C@@H](CCCCN)C(=O)N[C@@H](CC(=O)O)C(=O)N[C@@H](CC(N)=O)C(=O)N[C@H](C(=O)N[C@@H](CS)C(=O)N[C@@H](CCCCN)C(N)=O)[C@@H](C)O)[C@@H](C)O` [NFAPγ] (Ac-EYKGECFTKDNTCK-NH2), the MIC against C. albicans SC5314 [1] was over 200 μg mL^–1; with A. fumigatus CBS 101355 (CBS 101355, 72 h), over 200 μg mL^–1. For the same compound, the antifungal activity entry in data set [4] is recorded as “did not exhibit antifungal activity”. Moreover, in data set [5] (setting [6]), the “oxidation / disulfide bridge formation (in words)” value is reported as “most of this peptide formed intramolecular, whereas a smaller part formed an intermolecular disulfide bond”.
With Ac-EIKIKCKIKKIKSK-NH2 [NFAPimpγGZ^C13S], the MIC with C. albicans SC5314 [1] is reported as 25 μg mL^–1; in the data set with A. fumigatus CBS 101355 (CBS 101355, 72 h), 50 μg mL^–1. Besides, the “growth” value in the data set with C. albicans SC5314 [2] (2× MIC) is “total or high growth inhibitions”.
Taken in the same sequence, the figures for “Ac-EIKIKSKIKKIKSK-NH2 [NFAPimpγGZ^C6S,C13S]” were 25 μg mL^–1, 50 μg mL^–1 and “could not inhibit the growth”.
On to Ac-EYKGKCKTKKNKSK-NH2 [NFAPimpγ^C13S], for which the MIC with C. albicans SC5314 [1] was 50 μg mL^–1; in the data set with A. fumigatus CBS 101355 (CBS 101355, 72 h), over 200 μg mL^–1. In the data set with C. albicans SC5314 [2] (setting [7]), the “growth” value is “could not fully inhibit the growth”. In addition, the “share of the peptide in dimer form” value in data set [5] (setting [6]) is reported as “approximately 60%”.
Turning to “Ac-EYKGKSKTKKNKSK-NH2 [NFAPimpγ^C6S,C13S]”, the MIC with C. albicans SC5314 [1] was 50 μg mL^–1; in the data set on A. fumigatus CBS 101355 (CBS 101355, 72 h) it was over 200 μg mL^–1. Further, the “growth” value with C. albicans SC5314 [2] (setting [7]) is given as “could not fully inhibit the growth”.
